Reference: patent US11938133B2, “Stable pharmaceutical composition for oral administration” (ASTELLAS PHARMA INC., priority 2015, dated 2024)

Legend:
[1] = Calculation of proportion of crystals by near-infrared spectroscopy; format: physicochemical; settings: Compound A hemifumarate after water was added to the crystals and dried (material used for Examples 4 to 15)
Experimental: As a method of calculating the proportion of crystals of Compound A hemifumarate in Compound A hemifumarate, for example, the spectrum is measured, as a near-infrared spectroscopy measurement, by a Fourier transform near-infrared spectrometer (MPA, Bruker Optics K. K.)(measurement range; 12500 cm^−1 to 5800 cm^−1, resolution; 8 cm^−1, number of scans; 32), and the obtained spectrum is secondary-differentiated (Savitzky-Golay convolution method), and can be analyzed using a near-infrared spectrum analysis software (for example, OPUS, Bruker Optics K. K.). The pharmaceutical composition for oral administration is powdered using a mortar and pestle to measure the spectrum. Before the spectrum measurement of the pharmaceutical composition for oral administration, spectra of preparations, in which crystals of Compound A hemifumarate are mixed in various proportions, are regression-analyzed by a partial least square method to create a calibration curve, and each spectrum obtained from the pharmaceutical composition for oral administration is interpolated into the calibration curve to calculate the proportion of crystals of Compound A hemifumarate.
With respect to the tablets (film coated tablets) prepared in Comparative Example 1, Example 1, Example 2, and Example 3, the proportion of crystals of Compound A hemifumarate after production was calculated by near-infrared spectroscopy. […]

[2] = Stability of drug substance alone in heat and humidity (severity test or the like); format: physicochemical; settings: certain storage conditions such as a severity test
[3] = tested on: EML4 (Echinoderm microtubule associated protein like-4)-ALK (Anaplastic lymphoma kinase) fusion protein; settings: reported in Patent literature 1 (WO 2010/128659); cited from earlier work

SMILES	Proportion of crystals [1] [%]	Stability of drug substance alone (in words) [2]	Inhibitory activity of a kinase activity of EML4-ALK fusion protein [3]
CCc1nc(C(N)=O)c(Nc2ccc(N3CCC(N4CCN(C)CC4)CC3)c(OC)c2)nc1NC1CCOCC1 [Compound A hemifumarate]	62	stable in heat and humidity alone	
CCc1nc(C(N)=O)c(Nc2ccc(N3CCC(N4CCN(C)CC4)CC3)c(OC)c2)nc1NC1CCOCC1 [Compound A, 6-Ethyl-3-({3-methoxy-4-[4-(4-methylpiperazin-1-yl)piperidin-1-yl]phenyl}amino)-5-(tetrahydro-2H-pyran-4-ylamino)pyrazine-2-carboxamide]			inhibitory activity
